The source of these data is ChEMBL document CHEMBL1201862, “PubChem BioAssay data set” (2004).

Structures are written as SMILES. Activity calls are given as the source filed them. For most assays here, no stated cut-off is given here; in the data, actives have a measured IC50 and inactives only a lower limit.

The target of test [1] is T1, Tyrosine-protein phosphatase non-receptor type 7 (Homo sapiens, UniProt P35236).
T1 sequence (P35236 whole entry): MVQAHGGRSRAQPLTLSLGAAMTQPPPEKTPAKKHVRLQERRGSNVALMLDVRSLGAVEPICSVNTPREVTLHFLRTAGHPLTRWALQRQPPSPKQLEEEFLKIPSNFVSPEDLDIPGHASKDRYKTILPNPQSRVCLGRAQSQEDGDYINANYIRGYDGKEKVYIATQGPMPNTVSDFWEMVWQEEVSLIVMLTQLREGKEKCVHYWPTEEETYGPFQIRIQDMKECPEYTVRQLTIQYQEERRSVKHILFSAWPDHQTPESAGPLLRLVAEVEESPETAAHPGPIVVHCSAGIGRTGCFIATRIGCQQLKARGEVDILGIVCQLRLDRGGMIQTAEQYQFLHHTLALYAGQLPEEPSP
In kind it is functional.

Test [2] deals with T2, Tyrosine-protein phosphatase non-receptor type 22 (Homo sapiens, UniProt Q9Y2R2).
T2 sequence (Q9Y2R2 whole entry): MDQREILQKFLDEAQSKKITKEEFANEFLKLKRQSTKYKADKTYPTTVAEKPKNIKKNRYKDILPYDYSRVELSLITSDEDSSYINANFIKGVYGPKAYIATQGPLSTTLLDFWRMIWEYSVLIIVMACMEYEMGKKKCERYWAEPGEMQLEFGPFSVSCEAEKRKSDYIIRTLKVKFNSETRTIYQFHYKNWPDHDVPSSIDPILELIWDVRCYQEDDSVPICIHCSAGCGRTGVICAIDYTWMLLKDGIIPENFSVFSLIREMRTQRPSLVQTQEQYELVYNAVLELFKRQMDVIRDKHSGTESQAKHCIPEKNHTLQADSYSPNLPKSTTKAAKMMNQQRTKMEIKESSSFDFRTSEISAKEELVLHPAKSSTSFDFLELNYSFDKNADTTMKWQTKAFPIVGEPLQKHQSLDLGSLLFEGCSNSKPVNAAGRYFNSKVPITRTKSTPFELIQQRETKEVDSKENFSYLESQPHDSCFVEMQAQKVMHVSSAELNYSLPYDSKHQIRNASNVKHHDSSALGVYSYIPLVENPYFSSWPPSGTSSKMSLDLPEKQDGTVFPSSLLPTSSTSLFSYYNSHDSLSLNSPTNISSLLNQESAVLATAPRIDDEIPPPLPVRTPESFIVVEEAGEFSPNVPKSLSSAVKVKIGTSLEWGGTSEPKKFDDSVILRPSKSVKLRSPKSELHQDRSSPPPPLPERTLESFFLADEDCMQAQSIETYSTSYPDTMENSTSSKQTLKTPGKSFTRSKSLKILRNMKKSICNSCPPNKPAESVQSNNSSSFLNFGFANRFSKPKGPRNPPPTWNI
In kind it is functional.

In test [3] the target is T2, Tyrosine-protein phosphatase non-receptor type 22. In kind it is functional. The source holds these as a separate data set.
The target of a further test is Troponin, cardiac muscle (Homo sapiens, UniProt P19429+P45379+P63316). The test can be described thus: Fluorescence-based biochemical high throughput dose response assay for activators of the calcium sensitivity of cardiac Regulated Thin Filaments (RTF). [Related pubchem assays (depositor defined):AID493008, AID493018, AID504382, AID504383]. In kind it is protein-complex assay.

In test [4] the target is G-protein coupled receptor 55 (Homo sapiens, UniProt Q9Y2T6). The test can be described thus: GPR55 antagonists blocking LPI-driven arrestin recruitment, primary screen, imaging, U2OS, beta-arrestin-GFP, LPI agonist (AID 2013).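 Further: antagonist potency measured as reduced agonist-driven arrestin aggregation.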 In kind it is functional. For orientation: Recruitment of arrestin is a read-out of receptor activation apart from second messengers.
G-protein coupled receptor 55, sequence (Q9Y2T6 whole entry): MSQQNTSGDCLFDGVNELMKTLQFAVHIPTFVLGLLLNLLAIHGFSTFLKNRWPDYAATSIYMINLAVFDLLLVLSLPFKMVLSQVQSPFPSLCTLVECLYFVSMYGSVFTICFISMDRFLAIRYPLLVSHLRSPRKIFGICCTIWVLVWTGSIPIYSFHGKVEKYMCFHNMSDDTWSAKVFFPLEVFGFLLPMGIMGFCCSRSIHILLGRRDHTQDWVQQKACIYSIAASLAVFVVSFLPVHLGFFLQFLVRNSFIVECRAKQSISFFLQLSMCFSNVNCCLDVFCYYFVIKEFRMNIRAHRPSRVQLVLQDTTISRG
Test [5] has as its target T3, Voltage-gated N-type calcium channel alpha-1B subunit/Amyloid beta A4 precursor protein-binding family A member 1 (Homo sapiens, UniProt Q00975+Q02410). In kind it is protein assay.
Test [6] addresses T3, Voltage-gated N-type calcium channel alpha-1B subunit/Amyloid beta A4 precursor protein-binding family A member 1. The format is protein assay. This is another data set of the same source.

T3 sequence (Q00975 whole entry): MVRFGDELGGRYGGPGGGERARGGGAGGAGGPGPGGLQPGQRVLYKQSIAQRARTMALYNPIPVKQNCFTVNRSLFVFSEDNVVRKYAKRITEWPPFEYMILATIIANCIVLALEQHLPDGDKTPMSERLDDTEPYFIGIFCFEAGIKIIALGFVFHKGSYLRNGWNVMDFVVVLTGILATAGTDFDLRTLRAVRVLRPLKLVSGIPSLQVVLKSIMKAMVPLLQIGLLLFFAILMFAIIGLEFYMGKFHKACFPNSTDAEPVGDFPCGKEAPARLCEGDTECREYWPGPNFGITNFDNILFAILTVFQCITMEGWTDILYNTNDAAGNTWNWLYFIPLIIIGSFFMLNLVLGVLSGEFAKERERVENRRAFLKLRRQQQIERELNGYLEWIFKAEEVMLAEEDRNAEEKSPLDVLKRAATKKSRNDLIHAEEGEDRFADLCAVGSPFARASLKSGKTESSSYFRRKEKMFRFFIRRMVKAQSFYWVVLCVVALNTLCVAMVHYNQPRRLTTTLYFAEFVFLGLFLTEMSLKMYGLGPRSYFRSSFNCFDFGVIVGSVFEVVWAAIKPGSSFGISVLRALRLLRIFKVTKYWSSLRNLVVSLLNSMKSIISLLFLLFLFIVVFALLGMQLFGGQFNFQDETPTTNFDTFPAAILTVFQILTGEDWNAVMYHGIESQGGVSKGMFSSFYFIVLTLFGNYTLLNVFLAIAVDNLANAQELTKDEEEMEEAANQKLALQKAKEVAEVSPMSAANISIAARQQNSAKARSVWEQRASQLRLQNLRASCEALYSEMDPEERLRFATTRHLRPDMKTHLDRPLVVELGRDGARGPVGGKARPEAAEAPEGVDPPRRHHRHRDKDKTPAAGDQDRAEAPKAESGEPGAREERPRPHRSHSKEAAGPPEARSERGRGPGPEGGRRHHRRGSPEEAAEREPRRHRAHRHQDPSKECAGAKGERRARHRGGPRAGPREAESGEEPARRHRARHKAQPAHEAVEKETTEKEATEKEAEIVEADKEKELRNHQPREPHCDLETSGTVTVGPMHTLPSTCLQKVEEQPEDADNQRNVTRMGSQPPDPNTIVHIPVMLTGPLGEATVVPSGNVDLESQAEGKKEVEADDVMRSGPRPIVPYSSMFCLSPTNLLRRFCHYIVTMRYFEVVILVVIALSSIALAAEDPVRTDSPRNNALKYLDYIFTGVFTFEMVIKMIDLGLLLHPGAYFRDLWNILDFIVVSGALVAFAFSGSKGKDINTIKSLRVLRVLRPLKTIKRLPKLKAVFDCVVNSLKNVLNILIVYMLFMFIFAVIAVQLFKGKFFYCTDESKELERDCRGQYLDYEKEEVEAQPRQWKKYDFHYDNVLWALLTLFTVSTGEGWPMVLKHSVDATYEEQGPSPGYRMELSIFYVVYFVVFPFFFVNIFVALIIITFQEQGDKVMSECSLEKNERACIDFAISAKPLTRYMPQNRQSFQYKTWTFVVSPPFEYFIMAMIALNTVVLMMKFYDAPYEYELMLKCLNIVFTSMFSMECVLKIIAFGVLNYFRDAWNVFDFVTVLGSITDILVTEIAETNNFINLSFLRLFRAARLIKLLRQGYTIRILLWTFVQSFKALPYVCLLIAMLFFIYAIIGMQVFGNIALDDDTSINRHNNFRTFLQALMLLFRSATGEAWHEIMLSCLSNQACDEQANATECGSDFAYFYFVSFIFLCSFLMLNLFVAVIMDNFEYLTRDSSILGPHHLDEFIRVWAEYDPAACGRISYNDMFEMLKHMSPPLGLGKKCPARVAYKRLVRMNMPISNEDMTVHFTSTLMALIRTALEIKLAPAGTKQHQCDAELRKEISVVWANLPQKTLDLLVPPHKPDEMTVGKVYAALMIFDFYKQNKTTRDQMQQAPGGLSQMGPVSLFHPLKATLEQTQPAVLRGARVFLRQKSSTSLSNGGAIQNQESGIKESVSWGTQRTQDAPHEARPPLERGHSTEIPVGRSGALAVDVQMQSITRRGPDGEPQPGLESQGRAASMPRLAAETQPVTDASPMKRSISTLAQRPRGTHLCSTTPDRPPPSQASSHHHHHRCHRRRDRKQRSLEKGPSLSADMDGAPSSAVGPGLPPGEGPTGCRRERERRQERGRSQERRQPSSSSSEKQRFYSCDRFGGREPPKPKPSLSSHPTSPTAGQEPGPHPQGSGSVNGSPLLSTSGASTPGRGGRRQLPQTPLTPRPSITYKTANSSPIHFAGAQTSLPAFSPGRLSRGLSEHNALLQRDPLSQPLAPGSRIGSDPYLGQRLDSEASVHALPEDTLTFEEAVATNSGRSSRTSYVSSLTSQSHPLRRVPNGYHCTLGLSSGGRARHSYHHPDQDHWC
T3 sequence (Q02410 whole entry): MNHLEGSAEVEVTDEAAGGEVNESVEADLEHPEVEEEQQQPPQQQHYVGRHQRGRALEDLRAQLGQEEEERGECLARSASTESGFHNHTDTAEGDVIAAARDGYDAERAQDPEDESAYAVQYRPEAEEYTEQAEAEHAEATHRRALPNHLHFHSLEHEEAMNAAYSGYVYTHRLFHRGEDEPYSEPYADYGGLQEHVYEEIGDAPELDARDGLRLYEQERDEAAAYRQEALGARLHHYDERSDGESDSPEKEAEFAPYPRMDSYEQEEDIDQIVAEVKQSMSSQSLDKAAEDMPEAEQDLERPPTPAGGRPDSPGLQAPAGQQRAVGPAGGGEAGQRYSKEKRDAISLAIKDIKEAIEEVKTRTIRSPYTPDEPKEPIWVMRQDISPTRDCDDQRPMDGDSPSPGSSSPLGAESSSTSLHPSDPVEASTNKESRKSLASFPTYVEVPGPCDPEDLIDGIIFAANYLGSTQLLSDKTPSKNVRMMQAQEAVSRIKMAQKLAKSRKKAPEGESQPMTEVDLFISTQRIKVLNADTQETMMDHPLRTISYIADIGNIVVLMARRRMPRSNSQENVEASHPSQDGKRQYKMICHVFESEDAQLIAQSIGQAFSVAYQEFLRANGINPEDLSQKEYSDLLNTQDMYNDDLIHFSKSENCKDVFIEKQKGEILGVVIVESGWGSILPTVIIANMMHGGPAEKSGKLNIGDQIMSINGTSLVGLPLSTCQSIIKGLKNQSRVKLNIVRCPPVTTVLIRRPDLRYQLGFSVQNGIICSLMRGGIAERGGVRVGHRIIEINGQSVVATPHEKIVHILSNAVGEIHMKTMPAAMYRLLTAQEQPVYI

Regarding `Cc1cc2ncc(Cl)nc2cc1C`, the IC50 in test [1], in test [2] and in test [3] was > 79.4 µM (inactive) in each case.

With `c1ccc(Cn2c(-c3ccccc3)nc3nc4ccccc4nc32)cc1`, the EC50 (usually the concentration that produces a half-maximal response) at Troponin, cardiac muscle was > 71.5 µM (inactive).

As for `CC(C)(C)c1ccc(CN2C(=O)CN=C(c3ccccc3)c3ccccc32)cc1`, the IC50 (usually the concentration that inhibits the measured activity by half) in test [4] is 3.35 µM (active).

As to `O=C(NCCO)c1cc(-c2cc(C(=O)NCCO)c3ccccc3n2)nc2ccccc12`, the IC50 in test [5] is 6.83 µM (active); in test [6], > 50 µM (inactive).

On to `Cc1cc(O)ccc1C1(c2ccc(O)cc2C)OC(=O)c2ccccc21`, for which the half-inhibitory concentration (IC50) in test [4] is 3.46 µM (active).

In the case of `CC(=O)N(C)c1ccc(C(O)(C(F)(F)F)C(F)(F)F)cc1`, at Troponin, cardiac muscle, the EC50 is > 71.5 µM (inactive).

On to `COc1ccc(OCC(=O)N/N=C/c2ccc(OC)c(OC)c2C(=O)O)cc1`, for which the IC50 in test [1], in test [2] and in test [3] was > 79.4 µM (inactive) throughout.
